Experiments:
Test in all cases: LC-MS of product formed by Pichia cells expressing the enzyme
Format in all cases: cell-based
[1] = target: T1, CYP719A5 (EcCYP719A5), cheilanthifoline synthase (Eschscholzia californica, UniProt B5UAQ8); settings: in vivo reaction, BMMY medium pH 6.0, 30 °C, 24 h; vector control
T1 construct: codon-optimized synthetic gene in pPIC3.5/pPIC3.5K; expressed in Pichia pastoris GS115; whole cells, endogenous yeast reductase (no plant CPR)

[2] = target: T2, CYP719A2 (EcCYP719A2), stylopine synthase (Eschscholzia californica, UniProt C3SBS2); settings: in vivo reaction, BMMY medium pH 6.0, 30 °C, 24 h; substrate supplied as CYP719A5 reaction product; vector control
T2 construct: codon-optimized synthetic gene in pPIC3.5/pPIC3.5K; expressed in Pichia pastoris GS115; whole cells, endogenous yeast reductase (no plant CPR)
T2 sequence (C3SBS2 entry or part of it): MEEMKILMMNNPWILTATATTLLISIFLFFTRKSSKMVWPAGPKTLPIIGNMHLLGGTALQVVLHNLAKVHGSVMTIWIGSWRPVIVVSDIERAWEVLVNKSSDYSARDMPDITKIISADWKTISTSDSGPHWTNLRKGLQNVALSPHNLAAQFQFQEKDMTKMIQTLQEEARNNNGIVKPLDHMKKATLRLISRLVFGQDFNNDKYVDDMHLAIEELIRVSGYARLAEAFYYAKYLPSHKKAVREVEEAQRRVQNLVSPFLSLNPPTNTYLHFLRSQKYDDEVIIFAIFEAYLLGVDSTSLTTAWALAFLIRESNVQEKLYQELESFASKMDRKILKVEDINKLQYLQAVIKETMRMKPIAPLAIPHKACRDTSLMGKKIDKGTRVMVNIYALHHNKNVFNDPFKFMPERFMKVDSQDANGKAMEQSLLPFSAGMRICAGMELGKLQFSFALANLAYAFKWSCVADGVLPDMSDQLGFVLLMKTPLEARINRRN

[3] = target: T3, BBE (EcBBE), berberine bridge enzyme (Eschscholzia californica, UniProt P30986); settings: in vivo reaction, BMMY medium pH 6.0, 30 °C, 24 h; racemic substrate; vector control
T3 construct: gene BBE1; codon-optimized synthetic gene in pPIC3.5/pPIC3.5K; expressed in Pichia pastoris GS115; whole cells
T3 sequence (P30986 24-538): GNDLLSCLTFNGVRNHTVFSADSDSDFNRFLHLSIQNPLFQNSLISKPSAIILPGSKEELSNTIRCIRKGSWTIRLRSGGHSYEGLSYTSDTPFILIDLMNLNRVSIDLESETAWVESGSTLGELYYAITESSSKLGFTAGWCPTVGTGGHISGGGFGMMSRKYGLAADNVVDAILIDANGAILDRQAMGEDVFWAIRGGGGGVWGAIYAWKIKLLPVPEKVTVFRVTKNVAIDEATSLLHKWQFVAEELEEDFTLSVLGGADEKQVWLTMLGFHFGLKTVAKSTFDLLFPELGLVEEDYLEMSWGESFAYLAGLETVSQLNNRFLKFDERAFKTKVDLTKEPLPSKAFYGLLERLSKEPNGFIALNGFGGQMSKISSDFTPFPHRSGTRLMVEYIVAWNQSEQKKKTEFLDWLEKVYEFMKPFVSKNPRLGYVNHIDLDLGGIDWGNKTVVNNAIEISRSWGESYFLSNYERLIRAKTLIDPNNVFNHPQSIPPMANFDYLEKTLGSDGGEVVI

T1 sequence (B5UAQ8 whole entry): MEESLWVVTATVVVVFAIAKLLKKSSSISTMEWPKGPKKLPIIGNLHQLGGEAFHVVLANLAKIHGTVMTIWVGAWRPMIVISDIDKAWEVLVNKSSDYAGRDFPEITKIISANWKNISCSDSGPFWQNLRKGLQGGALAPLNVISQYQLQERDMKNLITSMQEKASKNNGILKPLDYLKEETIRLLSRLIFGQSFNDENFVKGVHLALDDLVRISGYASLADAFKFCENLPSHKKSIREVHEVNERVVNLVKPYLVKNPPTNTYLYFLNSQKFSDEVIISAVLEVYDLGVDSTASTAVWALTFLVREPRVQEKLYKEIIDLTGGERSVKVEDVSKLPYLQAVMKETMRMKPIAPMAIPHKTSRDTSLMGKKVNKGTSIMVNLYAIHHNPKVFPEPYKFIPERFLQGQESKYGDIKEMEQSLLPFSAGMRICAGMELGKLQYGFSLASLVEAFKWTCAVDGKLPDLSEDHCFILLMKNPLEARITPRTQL

SMILES: COc1cc2c(cc1O)[C@@H]1Cc3ccc(OC)c(O)c3CN1CC2 [(S)-scoulerine]
- LC-MS of product formed by Pichia cells expressing the enzyme [1]: The formation of cheilanthifoline by CYP719A5 from scoulerine was confirmed by the production of stylopine

SMILES: COc1cc2c(cc1O)[C@@H]1Cc3ccc4c(c3CN1CC2)OCO4 [cheilanthifoline]
- LC-MS of product formed by Pichia cells expressing the enzyme [2]: CYP719A5 reaction product (chielanthifoline) for CYP719A2 reaction

SMILES: COc1ccc(CC2c3cc(O)c(OC)cc3CCN2C)cc1O (racemic) [(R, S)-reticuline]
- LC-MS of product formed by Pichia cells expressing the enzyme [3]: reaction products of BBE and CYP719A5 (i.e., scoulerine from reticuline and cheilanthifoline from scoulerine)
